The values below come from US5508273A, “Substituted phosphonic acids and derivatives useful in treating bone wasting diseases” (priority 1993, dated 1996).

Structures are written as SMILES. pIC50: −log10 of the molar value. Read-outs that look alike come from different tables or passages of the source.

The target in assay [1] is T1, Human osteoclastic acid phosphatase (OAP) (Homo sapiens, UniProt P13686).
T1 construct: purified from hairy cell leukemia spleen; from tissue; host or cells: human hairy cell leukemia spleen
T1 sequence (P13686 22-325): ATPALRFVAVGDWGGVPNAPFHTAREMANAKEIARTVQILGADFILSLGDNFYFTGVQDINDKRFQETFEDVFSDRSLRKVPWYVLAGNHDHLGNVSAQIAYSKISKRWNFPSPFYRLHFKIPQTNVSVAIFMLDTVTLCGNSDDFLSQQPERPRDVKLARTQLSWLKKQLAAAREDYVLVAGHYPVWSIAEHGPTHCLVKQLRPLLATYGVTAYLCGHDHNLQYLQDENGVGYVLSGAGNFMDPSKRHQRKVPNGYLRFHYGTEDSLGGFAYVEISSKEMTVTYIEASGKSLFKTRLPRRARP
Nature of the assay: Osteoclastic Acid Phosphatase (OAP) inhibition. Format: biochemical. To be noted: for inhibition at 100 µM: read-out: OAPase % Inh@100 uM. The protocol:
Inhibitors of the enzyme are involved with the stimulation of osteoblast cell proliferation in cell culture which is predictive of enhancement of bone mass and bone formation in vivo. Inhibitors of osteoclastic acid phosphatase prevent the resorptive action of osteoclasts and thereby prevent the degradation of bone mass associated with osteoporosis.
The enzyme was stored at -80° C. and was diluted in 50 mM, pH 5.0, sodium acetate buffer prior to use. Test compounds were dissolved in ethanol, DMSO, or water and tested at 100 μM. The assay measures the ability of the enzyme to dephosphorylate methylumbelliferone phosphate to the product, methylumbelliferone, which is fluorescent. The enzyme assay is performed in 50 mM, pH 5.0, sodium acetate buffer as follows: 5 μL of compound was added to 150 μL Of buffered enzyme solution. […] The reaction was performed at room temperature at pH=5.0 and terminated after 20 minutes by the addition of 50 μL of 4N NaOH. The reaction product, methylumbelliferone, was measured by fluorescence determination using a Dynatech Microfluor Fluorescence detector.

For assay [2], the target named is T2, human prostatic tyrosyl phosphatase (Homo sapiens, UniProt P15309).
T2 construct: purchased Sigma Chemical Co
T2 sequence (P15309 33-386): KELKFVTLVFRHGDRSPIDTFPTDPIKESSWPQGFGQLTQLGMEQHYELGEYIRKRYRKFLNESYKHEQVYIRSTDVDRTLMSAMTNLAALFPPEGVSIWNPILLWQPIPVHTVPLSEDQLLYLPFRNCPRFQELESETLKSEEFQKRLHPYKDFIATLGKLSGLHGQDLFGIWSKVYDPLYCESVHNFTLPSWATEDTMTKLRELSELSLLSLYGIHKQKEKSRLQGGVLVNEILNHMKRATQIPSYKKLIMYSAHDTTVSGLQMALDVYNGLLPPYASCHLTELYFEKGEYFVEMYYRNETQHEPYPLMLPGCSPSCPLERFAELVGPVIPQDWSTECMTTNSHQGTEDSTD
Nature of the assay: biochemical. Conditions: 30 minutes at 37° C., pH 5.5, (14C)-phosphotyrosine substrate; read-out: Tyr-Pase IC50. As to the method:
Inhibition of the activity of tyrosyl protein phosphatase was evaluated by incubating an aliquot of purified human prostatic tyrosyl protein acid phosphatase (Sigma Chemical Co.) with radiolabeled phosphotyrosine. The radiolabeled substrate, (^14 C)-phosphotyrosine, is separated from the product, (^14 C)-tyrosine by ion exchange chromatography and the production of radiolabeled tyrosine is quantified. Test compounds are screened at a concentration of one micromolar to 1 nM. The ability of test compounds to inhibit tyrosyl phosphatase was expressed as the % inhibition at the highest concentration of test compound tested and/or as the IC50 in Table 1.
The test compounds were incubated in the presence of tyrosyl acid phosphatase and radiolabeled substrate {(^14 C)-phosphotyrosine, (NEN Dupont Custom Synthesis)} plus cold O-phospho-L-tyrosine{(10 uM) (Sigma Chemical Co.)} in a 0.05 mM sodium acetate buffer (pH 5.5) for 30 minutes at 37° C. […] The incubation mixture was passed over an ion-exchange column {(Ag 1-X8) (Bio-Rad Laboratories)} and washed with 2.5 ml of distilled, deionized water. The total column effluent containing the radiolabeled product (^14 C-tyrosine) was collected and quantified by liquid scintillation spectroscopy. The test compounds IC50 was calculated using a quantal (all-or-none) dose-response calculation.

[3] abbreviates: pH 5.0, room temperature, 20 minutes.
[4] abbreviates: pH 5.0, room temperature, 20 minutes, read-out: OAPase IC50.

The term pIC50 denotes −log10 of the IC50, conventionally taken in molar units. With `Cc1cccc(CC(c2cccc(C(F)(F)F)c2)P(=O)(O)O)c1` (centres unmarked) [Cmpd 31], the inhibition at 100 µM in assay [1] (setting [3]) was 25%. In addition, the pIC50 in assay [2] was 4.44.

Regarding `O=P(O)(O)C(Cc1ccccc1)c1ccc2ccccc2c1` (centres unmarked) [Cmpd 40], in assay [1] (setting [3]), the inhibition at 100 µM worked out at 19%. In addition, the pIC50 in assay [2] is less than 6.00.

With `O=P(O)(O)C(Cc1ccccc1)c1cccc2ccccc12` (centres unmarked) [Cmpd 45], in assay [1] (setting [3]), the inhibition at 100 µM came to 92%. Moreover, the pIC50 in assay [1] (setting [4]) was 4.68; in assay [2], 4.17.

Turning to `O=P(O)(O)C(Cc1ccccc1)c1cccc(C(F)(F)F)c1` (centres unmarked) [Cmpd 36], in assay [1] (setting [3]), the inhibition at 100 µM was found to be 12%. In addition, in assay [2], the pIC50 is 4.00.

Take `O=C(c1ccccc1)C(C(=O)c1ccccc1)(c1cccc2ccccc12)P(=O)(O)O` [Cmpd 55, bis(Benzoyl)(1-naphthyl)methylphosphonic Acid]: the negative-log IC50 (pIC50) in assay [1] was 5.85; in assay [2] it was less than 6.00. Further, the inhibition at 100 µM in assay [1] (setting [3]) amounted to 96%.

Take `Cc1ccccc1C(c1ccccc1)P(=O)(O)O` (centres unmarked) [Cmpd 11]: the inhibition at 100 µM in assay [1] (setting [3]) came to 13%. In addition, the negative-log IC50 (pIC50) in assay [2] was 4.42.

As to `O=P(O)(O)C(Cc1ccc(F)cc1)c1cccc(C(F)(F)F)c1` (centres unmarked) [Cmpd 37], the inhibition at 100 µM in assay [1] (setting [3]) worked out at 25%. Also, in assay [2], the pIC50 was 4.51.

On to `Cc1ccc(CC(c2cccc3ccccc23)P(=O)(O)O)cc1` (centres unmarked) [Cmpd 46], for which the inhibition at 100 µM in assay [1] (setting [3]) came to 75%.

In the case of `O=P(O)(O)C(c1ccccc1)c1ccccc1Cl` (centres unmarked) [Cmpd 13], the inhibition at 100 µM in assay [1] (setting [3]) worked out at 12%. The pIC50 in assay [2] is 4.51.

With `O=P(O)(O)C(Cc1ccc(-c2ccccc2)cc1)c1cccc(C(F)(F)F)c1` (centres unmarked) [Cmpd 38], the inhibition at 100 µM in assay [1] (setting [3]) worked out at 100%. For the same compound, the pIC50 in assay [1] (setting [4]) is 4.66; in assay [2], 4.45.

For `O=P(O)(O)C(c1ccccc1)c1cccc(C(F)(F)F)c1` (centres unmarked) [Cmpd 16], the inhibition at 100 µM in assay [1] (setting [3]) turned out to be 26%. Further, the negative-log IC50 (pIC50) in assay [2] is 4.17.

`O=P(O)(O)C(c1ccc(-c2ccccc2)cc1)C1CCCCC1` (centres unmarked) [Cmpd 6]: in assay [1] (setting [3]), the inhibition at 100 µM came out at 40%. Besides, the pIC50 in assay [2] was 4.43.

As for `O=P(O)(O)C(Cc1ccc(C(F)(F)F)cc1)c1cccc(C(F)(F)F)c1` (centres unmarked) [Cmpd 32], in assay [1] (setting [3]), the inhibition at 100 µM turned out to be 10%. The pIC50 in assay [2] was 4.18.

Consider `COc1ccc(C(c2ccccc2)P(=O)(O)O)cc1` (centres unmarked) [Cmpd 24], for which the inhibition at 100 µM in assay [1] (setting [3]) came out at 28%. Besides, the pIC50 in assay [2] is 4.44.

With `O=P(O)(O)C(c1ccc(-c2ccccc2)cc1)c1ccc(-c2ccccc2)cc1` [Cmpd 28], the inhibition at 100 µM in assay [1] (setting [3]) amounted to 100%. Further, the pIC50 in assay [1] (setting [4]) is 4.77; in assay [2], 4.00 to 4.30.

Turning to `O=P(O)(O)C(c1ccccc1)C1CCCCC1` (centres unmarked) [Cmpd 4], the pIC50 was 5.85 in assay [1] (setting [4]) and 5.16 in assay [2].

Consider `O=[N+]([O-])c1cccc(C(c2ccccc2)P(=O)(O)O)c1` (centres unmarked) [Cmpd 17], for which, in assay [1] (setting [3]), the inhibition at 100 µM amounted to 89%. In assay [2], the pIC50 is 4.77.

Take `Cc1ccccc1C(C1CCCCC1)P(=O)(O)O` (centres unmarked) [Cmpd 8]: in assay [1] (setting [3]), the inhibition at 100 µM amounted to 16%.

As for `O=P(O)(O)C(c1ccccc1)c1ccc(Br)cc1` (centres unmarked) [Cmpd 26], the inhibition at 100 µM in assay [1] (setting [3]) was 20%. The pIC50 in assay [2] is 3.99.

`O=P(O)(O)C(c1cccc(C(F)(F)F)c1)c1cccc(C(F)(F)F)c1` [Cmpd 20, bis(3-Trifluoromethylphenyl)methylphosphonic Acid]: the inhibition at 100 µM in assay [1] (setting [3]) stood at 28%. The pIC50 in assay [2] is 4.53.

Regarding `Cc1ccc(C)c(C(c2ccccc2)P(=O)(O)O)c1` (centres unmarked) [Cmpd 19, 2,5-Dimethylphenyl(phenyl)methylphosphonic Acid], in assay [1] (setting [3]), the inhibition at 100 µM is 13%. Further, the pIC50 in assay [2] is 4.44.

Consider `O=P(O)(O)C(Cc1cccc(C(F)(F)F)c1)c1cccc(C(F)(F)F)c1` (centres unmarked) [Cmpd 35, 3-Trifluoromethylphenyl(3-trifluoromethylbenzyl)methylphosphonic Acid], for which the results for the pIC50 in assay [1] (setting [4]) and in assay [2] were 4.00 and 5.05, respectively.

`O=P(O)(O)C(Cc1ccc(Cl)cc1)c1cccc2ccccc12` (centres unmarked) [Cmpd 48, 4-Chlorobenzyl(1-naphthyl)methylphosphonic acid]: the pIC50 was 4.68 in assay [1] and 4.24 in assay [2]. Besides, the inhibition at 100 µM in assay [1] (setting [3]) is 94%.

On to `O=P(O)(O)C(c1ccccc1)C1CCCCCC1` (centres unmarked) [Cmpd 5], for which the inhibition at 100 µM in assay [1] (setting [3]) amounted to 6%. Besides, in assay [2], the pIC50 is 4.63.

Turning to `O=P(O)(O)C(c1ccccc1)c1ccc(F)cc1` (centres unmarked) [Cmpd 21], in assay [1] (setting [3]), the inhibition at 100 µM is 10%. For the same compound, the pIC50 in assay [2] is 4.35.

As to `O=[N+]([O-])c1ccc(CC(c2cccc3ccccc23)P(=O)(O)O)cc1` (centres unmarked) [Cmpd 47], in assay [1] (setting [3]), the inhibition at 100 µM amounted to 80%.

As to `COc1ccc(CC(c2cccc3ccccc23)P(=O)(O)O)cc1` (centres unmarked) [Cmpd 44], the inhibition at 100 µM in assay [1] (setting [3]) stood at 73%.

In the case of `O=P(O)(O)C(c1ccccc1)c1ccc(Cl)cc1` (centres unmarked) [Cmpd 27], the inhibition at 100 µM in assay [1] (setting [3]) is 17%. Further, the pIC50 in assay [2] is 3.85.

As to `Cc1cccc(C(c2ccccc2)P(=O)(O)O)c1` (centres unmarked) [Cmpd 18], in assay [1] (setting [3]), the inhibition at 100 µM was determined as 4%. Also, the pIC50 in assay [2] is 4.85.

Take `O=P(O)(O)C(CCc1ccccc1)c1ccccc1` (centres unmarked) [Cmpd 9]: the inhibition at 100 µM in assay [1] (setting [3]) is 30%. In assay [2], the pIC50 is 4.86.

For the compound `Cc1ccc2c(C(CC3CCCCC3)P(=O)(O)O)cccc2c1` (centres unmarked) [Cmpd 43], in assay [1] (setting [3]), the inhibition at 100 µM was found to be 73%. In addition, the pIC50 in assay [1] (setting [4]) was 4.94; in assay [2], less than 5.00.

For `O=P(O)(O)C(c1ccccc1)c1ccc(C(F)(F)F)cc1` (centres unmarked) [Cmpd 23], the pIC50 is 4.00 in assay [1] (setting [4]) and 4.39 in assay [2].

For `Cc1cccc(C(C2CCCCC2)P(=O)(O)O)c1` (centres unmarked) [Cmpd 7], the inhibition at 100 µM in assay [1] (setting [3]) was 16%.

With `O=P(O)(O)C(c1ccccc1)c1ccccc1C(F)(F)F` (centres unmarked) [Cmpd 14, 2-Trifluoromethylphenyl(phenyl)methylphosphonic Acid], the inhibition at 100 µM in assay [1] (setting [3]) was 9%. For the same compound, in assay [2], the pIC50 is 5.05.

Regarding `O=P(O)(O)C(c1ccccc1)c1cccc(Cl)c1` (centres unmarked) [Cmpd 15], in assay [1] (setting [3]), the inhibition at 100 µM amounted to 31%. The pIC50 in assay [2] is 4.82.

In the case of `O=P(O)(O)C(Cc1ccc(-c2ccccc2)cc1)c1cccc2ccccc12` (centres unmarked) [Cmpd 42], the inhibition at 100 µM in assay [1] (setting [3]) amounted to 100%. Also, the pIC50 in assay [1] (setting [4]) was 5.20; in assay [2], less than 6.00.

With `O=P(O)(O)C(Cc1ccc(-c2ccccc2)cc1)c1ccccc1` (centres unmarked) [Cmpd 25], the inhibition at 100 µM in assay [1] (setting [3]) was 94%. Besides, the pIC50 in assay [1] (setting [4]) was 4.54; in assay [2] it was 4.80.
